Assay results taken from ChEMBL document CHEMBL1201862, “PubChem BioAssay data set” (2004).
Active and inactive are the calls of the source.

Columns and labels:
[1] = biological target: T1, Neuropeptide Y receptor type 1 (Homo sapiens, UniProt P25929); format: functional;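 also: HEK293 cells with a CNG channel challenged with NPY then isoproterenol; potency as antagonist that reverses NPY suppression of cAMP signal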
T1 sequence (P25929 whole entry): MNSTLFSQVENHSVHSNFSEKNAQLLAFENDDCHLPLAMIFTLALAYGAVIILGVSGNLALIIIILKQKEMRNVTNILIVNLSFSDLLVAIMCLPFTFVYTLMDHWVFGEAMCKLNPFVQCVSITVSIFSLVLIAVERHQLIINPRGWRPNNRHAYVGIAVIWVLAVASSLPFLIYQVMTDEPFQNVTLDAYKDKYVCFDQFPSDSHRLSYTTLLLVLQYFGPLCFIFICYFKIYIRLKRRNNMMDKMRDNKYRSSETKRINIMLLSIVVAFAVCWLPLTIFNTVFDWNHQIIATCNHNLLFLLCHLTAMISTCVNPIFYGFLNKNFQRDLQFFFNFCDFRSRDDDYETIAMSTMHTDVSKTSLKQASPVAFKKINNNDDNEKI

[2] = biological target: T2, Neuropeptide Y receptor type 2 (Homo sapiens, UniProt P49146); format: functional, cell-based;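 also: HEK293 cells expressing the receptor and a CNG channel; stimulus was NPY near EC95 followed by isoproterenol to raise cAMP; antagonist potency measured as restoring cAMP signal that NPY suppresses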
T2 sequence (P49146 whole entry): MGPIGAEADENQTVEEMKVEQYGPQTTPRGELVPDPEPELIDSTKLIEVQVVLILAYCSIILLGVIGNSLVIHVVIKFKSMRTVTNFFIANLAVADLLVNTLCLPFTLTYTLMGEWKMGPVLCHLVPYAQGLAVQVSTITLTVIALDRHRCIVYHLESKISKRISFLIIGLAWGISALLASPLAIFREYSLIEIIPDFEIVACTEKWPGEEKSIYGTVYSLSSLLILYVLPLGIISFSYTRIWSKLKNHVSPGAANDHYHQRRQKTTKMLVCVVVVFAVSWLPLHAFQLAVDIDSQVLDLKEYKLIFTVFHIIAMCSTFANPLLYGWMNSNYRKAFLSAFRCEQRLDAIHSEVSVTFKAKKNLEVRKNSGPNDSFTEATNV

HT-1080 = assay: HT1080 cell viability loss – fluorescence readout (AID 620); format: functional, cell-based; details: Homo sapiens
[3] = biological target: T3, Luciferin 4-monooxygenase (Photinus pyralis, UniProt P08659); assay: Counter Screen for Luciferase-based Assay Positives. [Related pubchem assays: 620, 618, 411 ]
HEK293 = assay: EBV LMP1 TES2 canonical NF-kB signalling blockers – cell-based, HEK293, luciferase, cherry-pick, dose response (AID 588343); format: functional; details: Homo sapiens
[4] = biological target: T4, Calpain-2 catalytic subunit (Sus scrofa, UniProt P43367); assay: m-calpain protease blockers, concentration series – biochemical, fluorogenic peptide substrate, dose response (AID 1420); format: functional
T4 sequence (P43367 whole entry): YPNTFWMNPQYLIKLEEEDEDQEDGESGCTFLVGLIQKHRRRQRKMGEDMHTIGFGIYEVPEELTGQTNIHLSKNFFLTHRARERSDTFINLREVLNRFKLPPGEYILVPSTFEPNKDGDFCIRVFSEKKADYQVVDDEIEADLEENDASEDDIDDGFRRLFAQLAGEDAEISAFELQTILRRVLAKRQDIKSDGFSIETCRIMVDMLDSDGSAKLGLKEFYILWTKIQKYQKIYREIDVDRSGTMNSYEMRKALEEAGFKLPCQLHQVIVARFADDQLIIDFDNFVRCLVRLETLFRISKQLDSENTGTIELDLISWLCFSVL

Vero = assay: mammalian cell viability reduction – secondary assay, cytotoxicity control for West Nile virus antiviral project, dose response (AID 1650); format: functional; details: Chlorocebus sabaeus
[5] = biological target: T5, DNA repair protein RAD52 homolog (Homo sapiens, UniProt P43351); format: functional, biochemical
T5 sequence (P43351 whole entry): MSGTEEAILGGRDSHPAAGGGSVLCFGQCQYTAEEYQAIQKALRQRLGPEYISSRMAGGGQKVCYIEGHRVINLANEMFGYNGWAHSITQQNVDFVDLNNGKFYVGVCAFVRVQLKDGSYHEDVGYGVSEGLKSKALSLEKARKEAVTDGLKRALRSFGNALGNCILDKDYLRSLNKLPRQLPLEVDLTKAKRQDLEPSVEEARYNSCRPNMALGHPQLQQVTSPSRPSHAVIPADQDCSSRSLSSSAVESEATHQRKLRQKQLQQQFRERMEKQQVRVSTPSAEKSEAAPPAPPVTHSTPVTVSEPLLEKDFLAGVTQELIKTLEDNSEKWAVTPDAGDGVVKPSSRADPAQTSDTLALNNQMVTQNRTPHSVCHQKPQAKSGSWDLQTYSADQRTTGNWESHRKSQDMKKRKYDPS

[6] = biological target: T6, Mannose-6-phosphate isomerase (Homo sapiens, UniProt P34949); assay: MPI inhibition at elevated mannose 6-phosphate – biochemical, fluorescence intensity, high mannose 6-phosphate, primary screen (AID 1220)
T6 sequence (P34949 whole entry): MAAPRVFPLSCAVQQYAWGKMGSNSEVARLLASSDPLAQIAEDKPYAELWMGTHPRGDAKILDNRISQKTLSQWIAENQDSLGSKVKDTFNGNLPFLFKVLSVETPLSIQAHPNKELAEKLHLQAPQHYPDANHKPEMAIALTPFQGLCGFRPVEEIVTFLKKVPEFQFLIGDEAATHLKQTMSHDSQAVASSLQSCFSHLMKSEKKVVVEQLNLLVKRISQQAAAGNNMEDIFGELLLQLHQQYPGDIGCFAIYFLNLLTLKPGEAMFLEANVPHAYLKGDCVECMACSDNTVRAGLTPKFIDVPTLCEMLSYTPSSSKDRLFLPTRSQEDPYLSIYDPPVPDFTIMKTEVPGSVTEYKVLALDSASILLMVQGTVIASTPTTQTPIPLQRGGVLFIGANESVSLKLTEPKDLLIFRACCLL

cells [7] = assay: cells
Major prion protein = Major prion protein (Homo sapiens, UniProt P04156); format: functional, cell-based
[8] = alpha-synuclein stem-loop luciferase translation blockers – H4 neuroglioma cells, luminescence, confirmation (AID 1988); format: functional, cell-based
[9] = loss of viability in HepG2 cells – cell-based, CellTiter-Glo, cherry-picked, cytotoxicity control for Shn3 inhibitor project, dose response (AID 624134); format: functional
[10] = luciferase reporter signal suppression in cells – H4 neuroglioma cells, luminescence, dose response (AID 1990); format: functional, cell-based
[11] = Luminescence Cell-Based Dose Response HTS to Identify Inhibitors of 5'UTR Stem-Loop Driven Prion Protein mRNA Translation in H4 Neuroglioblastoma Cells. [Related pubchem assays: 1827 (Project Summary), 1813 (Primary HTS)]; format: functional
[12] = biological target: T3, Luciferin 4-monooxygenase; assay: inhibition of purified Photinus pyralis luciferase – biochemical, luminescence, dose response (AID 1891)
[13] = Luminescence Cell-Based Dose Confirmation HTS to Identify Inhibitors of Platelet Dense Granule Release. [Related pubchem assays: 1663 (Primary HTS), 1678 (Summary of Project)]; format: functional
[14] = alpha-synuclein stem-loop translation blockers – luminescence, H4 neuroglioblastoma cells, dose confirmation, confirmation (AID 2454); format: functional, cell-based;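 also: H4 neuroglioblastoma cells carrying an alpha-synuclein 5'UTR luciferase reporter; potency for inhibition of the luciferase signal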
cells [15] = format: functional, cell-based
[16] = luciferase reporter signal reduction – luminescence, H4-C neuroglioblastoma cells, dose response (AID 2458); format: functional, cell-based;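 also: H4 neuroglioblastoma cells stably carrying a luciferase reporter gene fusion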
[17] = reduction of Shn3 3'UTR-driven luciferase in osteoblasts – cell-based, Clone20 osteoblasts, firefly luciferase, cherry-picked, dose response (AID 624132); format: functional;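 also: firefly luciferase luminescence from reporter carrying the Shn3 3'UTR in osteoblasts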
[18] = biological target: T7, Heat shock factor protein 1 (Mus musculus, UniProt P38532); assay: decrease of HSF1-responsive luciferase luminescence – cell-based, NIH3T3, dose retest, confirmation (AID 2382); format: functional;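 also: NIH3T3 fibroblasts with HSF1-driven luciferase reporter stressed by proteasome inhibitor MG132; luminescence from HSF1-driven luciferase expression after 8 hours of MG132 stress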
T7 sequence (P38532 whole entry): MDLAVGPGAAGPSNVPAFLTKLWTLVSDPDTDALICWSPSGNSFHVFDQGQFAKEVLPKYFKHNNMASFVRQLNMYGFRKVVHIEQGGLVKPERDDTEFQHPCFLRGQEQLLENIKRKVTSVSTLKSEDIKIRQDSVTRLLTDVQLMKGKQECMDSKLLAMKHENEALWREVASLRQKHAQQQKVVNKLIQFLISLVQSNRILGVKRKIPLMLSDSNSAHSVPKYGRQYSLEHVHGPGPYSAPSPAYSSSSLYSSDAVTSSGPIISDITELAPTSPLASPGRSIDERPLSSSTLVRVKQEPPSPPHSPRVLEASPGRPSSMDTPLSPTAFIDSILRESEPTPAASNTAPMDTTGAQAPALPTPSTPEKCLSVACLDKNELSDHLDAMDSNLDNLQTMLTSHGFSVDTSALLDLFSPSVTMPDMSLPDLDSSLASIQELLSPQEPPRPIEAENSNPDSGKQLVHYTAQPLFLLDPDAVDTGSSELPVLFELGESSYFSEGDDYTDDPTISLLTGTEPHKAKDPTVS

Cc1ccc(NC(=O)C(=O)NCCOc2ccc(Cl)cc2)c(C)c1
IC50 [1]: 7.39 µM (active)
IC50 [2]: 7.41 µM (active)

O=C(NC1=NCCS1)c1cc2ccccc2o1
EC50 (HT-1080): > 50 µM (not active)
EC50 [3]: 59.1 µM (active)
AC50 (HEK293): 3.65 µM (active)

Cc1nc(-c2ccccc2)sc1C(=O)CSc1ccc(Cl)cc1
IC50 [1]: 5.4 µM (active)
IC50 [4]: 11.7 µM (not active)
IC50 [2]: 6.99 µM (active)

CCN(CC)CCNC(=O)c1cc2c(-c3cccc(OC)c3)nn(C)c2s1
CC50 (Vero): > 100 µM (active)
AC50 [5]: 3.79 µM (active)

CCOC(=O)c1c(-c2ccc(C)s2)csc1N
IC50 [6]: 35.4 µM (active)
IC50 (cells [7]): > 138 µM (inactive)
IC50 (Major prion protein): 104 µM (inactive)

O=C(Nc1nc2cc3c(cc2s1)OCCO3)C1=COCCO1
EC50 [8]: < 0.1 µM (active)
AC50 [9]: 18.1 µM (active)
EC50 [10]: < 0.1 µM (active)
EC50 [11]: < 0.1 µM (active)
EC50 [12]: 1.58 µM (active)
EC50 [13]: 5.65 µM (active)
EC50 [14]: 0.411 µM (active)
EC50 (cells [15]): 0.669 µM (active)
EC50 [16]: 0.432 µM (active)
AC50 [17]: 2.17 µM (active)
EC50 [18]: 1.74 µM (active)
